Results as given in BigSolDB 2.1.

COc1cc2c(cc1OC)C(=O)CC2
solubility (mole fraction) (in 2-butanone, 283.15 K): 0.0514 | solubility (mole fraction) (in 2-butanone, 288.15 K): 0.0623 | solubility (mole fraction) (in 2-butanone, 293.15 K): 0.0746 | solubility (mole fraction) (in 2-butanone, 298.15 K): 0.0891 | solubility (mole fraction) (in 2-butanone, 303.15 K): 0.105 | solubility (mole fraction) (in 2-butanone, 308.15 K): 0.125 | solubility (mole fraction) (in 2-butanone, 313.15 K): 0.149 | solubility (mole fraction) (in 2-butanone, 318.15 K): 0.177 | solubility (mole fraction) (in 2-butanone, 323.15 K): 0.208 | solubility (mole fraction) (in acetone, 283.15 K): 0.0486 | solubility (mole fraction) (in acetone, 288.15 K): 0.0596 | solubility (mole fraction) (in acetone, 293.15 K): 0.071 | solubility (mole fraction) (in acetone, 298.15 K): 0.0834 | solubility (mole fraction) (in acetone, 303.15 K): 0.101 | solubility (mole fraction) (in acetone, 308.15 K): 0.122 | solubility (mole fraction) (in acetone, 313.15 K): 0.146 | solubility (mole fraction) (in acetone, 318.15 K): 0.173 | solubility (mole fraction) (in acetone, 323.15 K): 0.2 | solubility (mole fraction) (in ethanol, 283.15 K): 0.00826 | solubility (mole fraction) (in ethanol, 288.15 K): 0.0112 | solubility (mole fraction) (in ethanol, 293.15 K): 0.0141 | solubility (mole fraction) (in ethanol, 298.15 K): 0.0193 | solubility (mole fraction) (in ethanol, 303.15 K): 0.0242 | solubility (mole fraction) (in ethanol, 308.15 K): 0.0317 | solubility (mole fraction) (in ethanol, 313.15 K): 0.0412 | solubility (mole fraction) (in ethanol, 318.15 K): 0.0519 | solubility (mole fraction) (in ethanol, 323.15 K): 0.0636 | solubility (mole fraction) (in ethyl acetate, 283.15 K): 0.0389 | solubility (mole fraction) (in ethyl acetate, 288.15 K): 0.0492 | solubility (mole fraction) (in ethyl acetate, 293.15 K): 0.059 | solubility (mole fraction) (in ethyl acetate, 298.15 K): 0.0697 | solubility (mole fraction) (in ethyl acetate, 303.15 K): 0.0842 | solubility (mole fraction) (in ethyl acetate, 308.15 K): 0.101 | solubility (mole fraction) (in ethyl acetate, 313.15 K): 0.122 | solubility (mole fraction) (in ethyl acetate, 318.15 K): 0.147 | solubility (mole fraction) (in ethyl acetate, 323.15 K): 0.171 | solubility (mole fraction) (in isobutanol, 283.15 K): 0.0123 | solubility (mole fraction) (in isobutanol, 288.15 K): 0.0161 | solubility (mole fraction) (in isobutanol, 293.15 K): 0.0212 | solubility (mole fraction) (in isobutanol, 298.15 K): 0.0288 | solubility (mole fraction) (in isobutanol, 303.15 K): 0.0385 | solubility (mole fraction) (in isobutanol, 308.15 K): 0.0493 | solubility (mole fraction) (in isobutanol, 313.15 K): 0.0646 | solubility (mole fraction) (in isobutanol, 318.15 K): 0.0806 | solubility (mole fraction) (in isobutanol, 323.15 K): 0.102 | solubility (mole fraction) (in isopropanol, 283.15 K): 0.00596 | solubility (mole fraction) (in isopropanol, 288.15 K): 0.00802 | solubility (mole fraction) (in isopropanol, 293.15 K): 0.0108 | solubility (mole fraction) (in isopropanol, 298.15 K): 0.0146 | solubility (mole fraction) (in isopropanol, 303.15 K): 0.0198 | solubility (mole fraction) (in isopropanol, 308.15 K): 0.0269 | solubility (mole fraction) (in isopropanol, 313.15 K): 0.0354 | solubility (mole fraction) (in isopropanol, 318.15 K): 0.0455 | solubility (mole fraction) (in isopropanol, 323.15 K): 0.0588 | solubility (mole fraction) (in isopropyl acetate, 283.15 K): 0.0264 | solubility (mole fraction) (in isopropyl acetate, 288.15 K): 0.0329 | solubility (mole fraction) (in isopropyl acetate, 293.15 K): 0.0396 | solubility (mole fraction) (in isopropyl acetate, 298.15 K): 0.0485 | solubility (mole fraction) (in isopropyl acetate, 303.15 K): 0.0581 | solubility (mole fraction) (in isopropyl acetate, 308.15 K): 0.0691 | solubility (mole fraction) (in isopropyl acetate, 313.15 K): 0.0801 | solubility (mole fraction) (in isopropyl acetate, 318.15 K): 0.0933 | solubility (mole fraction) (in isopropyl acetate, 323.15 K): 0.11 | solubility (mole fraction) (in methanol, 283.15 K): 0.0097 | solubility (mole fraction) (in methanol, 288.15 K): 0.0124 | solubility (mole fraction) (in methanol, 293.15 K): 0.0171 | solubility (mole fraction) (in methanol, 298.15 K): 0.0238 | solubility (mole fraction) (in methanol, 303.15 K): 0.0317 | solubility (mole fraction) (in methanol, 308.15 K): 0.0418 | solubility (mole fraction) (in methanol, 313.15 K): 0.0547 | solubility (mole fraction) (in methanol, 318.15 K): 0.071 | solubility (mole fraction) (in methanol, 323.15 K): 0.0902 | solubility (mole fraction) (in methyl acetate, 283.15 K): 0.0426 | solubility (mole fraction) (in methyl acetate, 288.15 K): 0.053 | solubility (mole fraction) (in methyl acetate, 293.15 K): 0.0665 | solubility (mole fraction) (in methyl acetate, 298.15 K): 0.0793 | solubility (mole fraction) (in methyl acetate, 303.15 K): 0.0986 | solubility (mole fraction) (in methyl acetate, 308.15 K): 0.118 | solubility (mole fraction) (in methyl acetate, 313.15 K): 0.139 | solubility (mole fraction) (in methyl acetate, 318.15 K): 0.159 | solubility (mole fraction) (in methyl acetate, 323.15 K): 0.185 | solubility (mole fraction) (in n-butanol, 283.15 K): 0.0118 | solubility (mole fraction) (in n-butanol, 288.15 K): 0.0155 | solubility (mole fraction) (in n-butanol, 293.15 K): 0.02 | solubility (mole fraction) (in n-butanol, 298.15 K): 0.0268 | solubility (mole fraction) (in n-butanol, 303.15 K): 0.0352 | solubility (mole fraction) (in n-butanol, 308.15 K): 0.0451 | solubility (mole fraction) (in n-butanol, 313.15 K): 0.0583 | solubility (mole fraction) (in n-butanol, 318.15 K): 0.0739 | solubility (mole fraction) (in n-butanol, 323.15 K): 0.0925 | solubility (mole fraction) (in n-butyl acetate, 283.15 K): 0.025 | solubility (mole fraction) (in n-butyl acetate, 288.15 K): 0.0294 | solubility (mole fraction) (in n-butyl acetate, 293.15 K): 0.0359 | solubility (mole fraction) (in n-butyl acetate, 298.15 K): 0.0428 | solubility (mole fraction) (in n-butyl acetate, 303.15 K): 0.0503 | solubility (mole fraction) (in n-butyl acetate, 308.15 K): 0.0593 | solubility (mole fraction) (in n-butyl acetate, 313.15 K): 0.0695 | solubility (mole fraction) (in n-butyl acetate, 318.15 K): 0.0795 | solubility (mole fraction) (in n-butyl acetate, 323.15 K): 0.0897 | solubility (mole fraction) (in n-pentanol, 283.15 K): 0.0115 | solubility (mole fraction) (in n-pentanol, 288.15 K): 0.0156 | solubility (mole fraction) (in n-pentanol, 293.15 K): 0.0216 | solubility (mole fraction) (in n-pentanol, 298.15 K): 0.0278 | solubility (mole fraction) (in n-pentanol, 303.15 K): 0.0386 | solubility (mole fraction) (in n-pentanol, 308.15 K): 0.0509 | solubility (mole fraction) (in n-pentanol, 313.15 K): 0.0659 | solubility (mole fraction) (in n-pentanol, 318.15 K): 0.0827 | solubility (mole fraction) (in n-pentanol, 323.15 K): 0.104 | solubility (mole fraction) (in n-propanol, 283.15 K): 0.00925 | solubility (mole fraction) (in n-propanol, 288.15 K): 0.0119 | solubility (mole fraction) (in n-propanol, 293.15 K): 0.0158 | solubility (mole fraction) (in n-propanol, 298.15 K): 0.0206 | solubility (mole fraction) (in n-propanol, 303.15 K): 0.0281 | solubility (mole fraction) (in n-propanol, 308.15 K): 0.0356 | solubility (mole fraction) (in n-propanol, 313.15 K): 0.0457 | solubility (mole fraction) (in n-propanol, 318.15 K): 0.0579 | solubility (mole fraction) (in n-propanol, 323.15 K): 0.0695 | solubility (mole fraction) (in n-propyl acetate, 283.15 K): 0.034 | solubility (mole fraction) (in n-propyl acetate, 288.15 K): 0.0424 | solubility (mole fraction) (in n-propyl acetate, 293.15 K): 0.05 | solubility (mole fraction) (in n-propyl acetate, 298.15 K): 0.0596 | solubility (mole fraction) (in n-propyl acetate, 303.15 K): 0.0694 | solubility (mole fraction) (in n-propyl acetate, 308.15 K): 0.0821 | solubility (mole fraction) (in n-propyl acetate, 313.15 K): 0.0962 | solubility (mole fraction) (in n-propyl acetate, 318.15 K): 0.109 | solubility (mole fraction) (in n-propyl acetate, 323.15 K): 0.129 | solubility (mole fraction) (in sec-butanol, 283.15 K): 0.0105 | solubility (mole fraction) (in sec-butanol, 288.15 K): 0.0147 | solubility (mole fraction) (in sec-butanol, 293.15 K): 0.0199 | solubility (mole fraction) (in sec-butanol, 298.15 K): 0.0272 | solubility (mole fraction) (in sec-butanol, 303.15 K): 0.0357 | solubility (mole fraction) (in sec-butanol, 308.15 K): 0.0461 | solubility (mole fraction) (in sec-butanol, 313.15 K): 0.0612 | solubility (mole fraction) (in sec-butanol, 318.15 K): 0.0766 | solubility (mole fraction) (in sec-butanol, 323.15 K): 0.0943
